Test results reported in paper PMC5728534 (PLoS ONE, 2017).
Changes are numbered by the printed parent chain. Read-outs that look alike come from different tables or passages of the source.

Assays:
OCT1 = conditions: literature data; cited from earlier work
OCT1*2 (Met420del) = biological target: T1, OCT1*2 (Met420del) (Homo sapiens, UniProt O15245, DEL420-420/L160F); assay: Inhibition by ranitidine of OCT1-mediated substrate uptake, OCT1*2 allele, HEK293 cells; format: cell-based; set-up: expressed in transfected cells; host or cells: HEK293 T-REx (Flp-In)
T1 sequence (O15245 with tags, fused parts or gaps L160F/DEL420-420): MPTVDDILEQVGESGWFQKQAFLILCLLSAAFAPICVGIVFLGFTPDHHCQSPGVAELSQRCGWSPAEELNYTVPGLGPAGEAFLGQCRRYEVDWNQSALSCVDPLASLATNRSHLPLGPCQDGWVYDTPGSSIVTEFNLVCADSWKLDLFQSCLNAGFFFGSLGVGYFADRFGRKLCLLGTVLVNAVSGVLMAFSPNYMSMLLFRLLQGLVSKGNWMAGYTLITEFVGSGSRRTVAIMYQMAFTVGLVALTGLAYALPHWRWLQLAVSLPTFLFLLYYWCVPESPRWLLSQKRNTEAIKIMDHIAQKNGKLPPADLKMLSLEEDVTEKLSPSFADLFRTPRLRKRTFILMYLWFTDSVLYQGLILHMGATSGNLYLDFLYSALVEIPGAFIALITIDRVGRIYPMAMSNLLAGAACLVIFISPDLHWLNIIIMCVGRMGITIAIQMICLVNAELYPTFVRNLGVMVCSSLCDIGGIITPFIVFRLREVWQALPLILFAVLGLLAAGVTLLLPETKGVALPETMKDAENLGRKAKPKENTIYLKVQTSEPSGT
Description: (§1) HEK293 or CHO cells overexpressing the human OCT1 alleles *1A (characterized by the amino acid substitution Met408Val), *1B, *1C (Phe160Leu), *1D (Pro341Leu/Met408Val), *2 (Met420del), *3 (Arg61Cys), *4 (Gly401Ser), *5 (Gly465Arg/Met420del), *6 (Cys88Arg/Met420del), *7 (Ser14Phe), *8A (Arg488Met), *8B (Arg488Met/Met408Val), *9 (Pro117Leu), *10 (Ser189Leu), *11 (Ile449Thr), *12 (Ser29Leu), or *13 (Thr245Met), the human OCT2 reference and variant alleles (Ala270Ser), human OCT3, and the control cells (transfected with the empty pcDNA5 vector) were generated by targeted chromosomal integration using the Flp-In™ System (Life Technologies, Darmstadt, Germany).
Cells were kept at 37°C and 5% CO2 in DMEM (HEK293) or RPMI (CHO), supplemented with 10% FCS, 100 U/ml penicillin, and 100 μg/ml streptomycin. Uptake experiments were performed at pH 7.4 using HBSS supplemented with 10 mM HEPES buffer (herein referred to as HBSS+). Cells were washed once with 1 ml pre-warmed HBSS+ buffer (37°C). […] Cells were washed twice with 2 ml ice-cold HBSS+ and lysed in 500 μl lysis buffer.
The intracellular concentration of MPP^+ was determined using liquid scintillation counting of radioactively labeled substrate. To this end, 400 μl cell lysate was measured with 9 ml Aquasafe Plus liquid scintillator using the Scintillation Counter LS6500 (Beckman Coulter, Krefeld, Germany). Intracellular ASP^+ concentrations were determined using fluorescence spectroscopy.
(§2) For all transport measurements, the intracellular amount of substrate was normalized to the total amount of protein of the sample as measured using the bicinchoninic acid assay [49].
(§3) For quantification of intracellular substrates, the cell debris were removed by centrifugation at 17,000 x g for 10 min. Four-hundred μl of the supernatant was evaporated to dryness under nitrogen flow at 40°C. The residue was reconstituted in 200 μl 0.1% formic acid and 10 μl were injected into the LC-MS/MS. For the LC-MS/MS analysis an API 4000™ system tandem mass spectrometer (AB SCIEX, Darmstadt, Germany) was used. Samples were separated using a Brownlee SPP RP-Amide Column (4.6x100 mm, 2.7 μm; PerkinElmer), with a SecurityGuard C18, 4x2 mm pre-column (Phenomenex, Aschaffenburg, Germany).
(§4) Nonlinear regression to the Michaelis-Menten equation was performed to determine Km and vmax using GraphPad Prism version 6 (GraphPad Software Inc., La Jolla, CA, USA). Nonlinear regression to the Hill equation v = vmin+(vmax-vmin)/1+([I]/IC50)^-Hillslope was performed to determine IC50 using SigmaPlot version 12.0 (Systat Software, San Jose, California, USA).

OCT1*1C (Phe160Leu) = biological target: T2, OCT1*1C (Phe160Leu) (Homo sapiens, UniProt O15245); conditions: 1 and 10 μM ranitidine, 2 min
T2 sequence (O15245 1-554): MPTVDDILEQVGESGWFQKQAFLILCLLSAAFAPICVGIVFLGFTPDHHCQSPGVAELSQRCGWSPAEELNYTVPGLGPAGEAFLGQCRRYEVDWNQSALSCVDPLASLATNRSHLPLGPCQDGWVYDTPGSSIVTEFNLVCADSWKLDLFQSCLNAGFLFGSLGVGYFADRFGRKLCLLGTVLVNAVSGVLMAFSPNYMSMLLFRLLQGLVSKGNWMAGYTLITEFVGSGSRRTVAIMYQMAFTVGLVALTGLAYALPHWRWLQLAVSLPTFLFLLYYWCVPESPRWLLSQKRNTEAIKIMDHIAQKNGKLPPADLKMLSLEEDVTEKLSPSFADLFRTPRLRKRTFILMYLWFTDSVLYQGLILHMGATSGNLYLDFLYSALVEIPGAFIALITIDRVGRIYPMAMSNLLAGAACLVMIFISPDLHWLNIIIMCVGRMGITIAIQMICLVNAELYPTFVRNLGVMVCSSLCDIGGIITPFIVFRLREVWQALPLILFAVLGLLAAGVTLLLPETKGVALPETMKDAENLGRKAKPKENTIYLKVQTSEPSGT
Description: as §1
(§5) Six hundred thousand HEK293 or CHO cells were plated per well in 12-well plates (pre-coated with poly-D-lysine) and were grown for 48 hours to reach confluence. Cells were kept at 37°C and 5% CO2 in DMEM (HEK293) or RPMI (CHO), supplemented with 10% FCS, 100 U/ml penicillin, and 100 μg/ml streptomycin. Uptake experiments were performed at pH 7.4 using HBSS supplemented with 10 mM HEPES buffer (herein referred to as HBSS+). […]
as §2
(§6) For quantification of intracellular substrates, the cell debris were removed by centrifugation at 17,000 x g for 10 min. […]

OCT1*1B = biological target: T3, OCT1*1B (Homo sapiens, UniProt O15245, L160F); assay: in vitro; conditions: HEK293 cells overexpressing OCT1*1B, pH 7.4, Km (± SEM), OCT1*1B reference allele, 10-600 μM ranitidine, control-cell uptake subtracted
T3 sequence (O15245 1-554 L160F): T2 sequence (O15245 1-554) with L160F
Description: as §1
Six hundred thousand HEK293 or CHO cells were plated per well in 12-well plates (pre-coated with poly-D-lysine) and were grown for 48 hours to reach confluence. Cells were kept at 37°C and 5% CO2 in DMEM (HEK293) or RPMI (CHO), supplemented with 10% FCS, 100 U/ml penicillin, and 100 μg/ml streptomycin. Uptake experiments were performed at pH 7.4 using HBSS supplemented with 10 mM HEPES buffer (herein referred to as HBSS+). Cells were washed once with 1 ml pre-warmed HBSS+ buffer (37°C). […] Cells were washed twice with 2 ml ice-cold HBSS+ and lysed in 500 μl lysis buffer.
as §2, §3, §4

OCT2 = biological target: T4, OCT2 (Homo sapiens, UniProt O15244, S270A); assay: Ranitidine uptake in HEK293 cells overexpressing OCT2 reference (Ala270); format: in vitro ADME; conditions: 1 μM ranitidine, 2 min
T4 construct: expressed in transfected cells; host or cells: HEK293 T-REx (Flp-In)
T4 sequence (O15244 1-555 S270A): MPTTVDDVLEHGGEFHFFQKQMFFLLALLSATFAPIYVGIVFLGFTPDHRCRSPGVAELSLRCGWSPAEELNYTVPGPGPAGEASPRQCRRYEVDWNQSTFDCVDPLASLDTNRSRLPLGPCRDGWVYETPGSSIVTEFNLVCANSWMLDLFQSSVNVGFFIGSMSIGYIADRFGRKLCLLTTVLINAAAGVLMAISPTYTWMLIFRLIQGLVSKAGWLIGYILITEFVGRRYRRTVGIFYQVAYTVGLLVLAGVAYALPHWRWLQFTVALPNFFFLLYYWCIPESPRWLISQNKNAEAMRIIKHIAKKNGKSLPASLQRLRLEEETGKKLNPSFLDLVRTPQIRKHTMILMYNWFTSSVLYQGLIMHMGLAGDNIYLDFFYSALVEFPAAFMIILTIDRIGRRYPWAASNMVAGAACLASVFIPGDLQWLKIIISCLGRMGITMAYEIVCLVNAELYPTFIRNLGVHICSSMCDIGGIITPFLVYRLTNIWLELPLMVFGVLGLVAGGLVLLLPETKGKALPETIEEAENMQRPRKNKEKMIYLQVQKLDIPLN
Description: as §1, §5, §2, §6

SMILES: CNC(=C[N+](=O)[O-])NCCSCc1ccc(CN(C)C)o1 [ranitidine, Ranitidine]
- Km (OCT1): 70 ± 9 µM
- IC50 at 2 min (OCT1*2 (Met420del); human, HEK293 cells overexpressing OCT1*2 (Met420del), pH 7.4, probe metformin (100 μM), substrate 100 μM metformin, OCT1*2, 2 min, HEK293): 14.8 µM
- inhibition at 2 min (OCT1*2 (Met420del); human, HEK293 cells overexpressing OCT1*2 (Met420del), pH 7.4, probe metformin (100 μM), read-out: inhibition of metformin uptake): 50%
- inhibition at 2 min (OCT1*2 (Met420del); human, HEK293 cells overexpressing OCT1*2 (Met420del), pH 7.4, probe morphine (0.1 μM), read-out: inhibition of morphine uptake): ≤ 30%
- inhibition at 2 min (OCT1*2 (Met420del); human, HEK293 cells overexpressing OCT1*2 (Met420del), pH 7.4, high concentrations expected in the gastrointestinal tract, all substrates tested, OCT1*2, read-out: inhibition of substrate uptake): > 70%
- IC50 (OCT1*2 (Met420del); substrate 0.1 μM MPP+, OCT1*2, 2 min, HEK293): 34.4 µM
- IC50 (OCT1*2 (Met420del); substrate 0.1 μM morphine, OCT1*2, 2 min, HEK293): 19.5 µM
- IC50 (OCT1*2 (Met420del); substrate 1 μM ASP+, OCT1*2, 2 min, HEK293): 155 µM
- uptake of ranitidine compared to the reference allele (OCT1*1C (Phe160Leu)): no significant difference
- Km at 2 min (OCT1*1B): 62.9 µM
- ranitidine uptake, OCT2-overexpressing compared to control cells (OCT2): 3.3 fold
